Read-outs that look alike come from different tables or passages of the source.

Assay [1] has as its system K. pneumoniae. To be noted: K. pneumoniae CCARM 10143; cited from earlier work.
Assay [2] concerns E. coli. To be noted: cited from earlier work.
Assay [3] deals with E. coli. The assay is described as follows: Antibacterial activity analysis (colony count after 2 hours in buffer). To be noted: 2 μM. Format: cell-based, Escherichia coli. Here is the method:
(§1) The antibacterial activity of the purified protein was tested for E. coli and various K. pneumoniae strains. The bacterium were grown to an exponential phase (OD600=0.5) and harvested by centrifugation at 12,000×g for 3 minutes. Then, the pellets were washed with reaction buffer solution (20 mM Tris-HCl, pH 7.5) and diluted to about 10^6 cells/ml in the buffer solution. Then, 100 μl bacterial suspension was mixed with the purified endolysin of 100 μl in the reaction buffer solution and incubated at 37° C. for 2 hours. Finally, the mixture was diluted with PBS and loaded on an LB plate. After culturing at 37° C. overnight, the bacterial colonies were counted. All the analysis was performed in triplicate.
(§2) The same reaction was performed for the selected subject bacterium in 20 mM HEPES-NaOH, 150 mM NaCl [pH 7.4], and the unique antibacterial activity of Tris and dependence of endolysin for turgor pressure were excluded (FIG. 10a and FIG. 10b). […] The bacterial cells grown geometrically were cultured with 2 μM endolysin in low tonicity buffers (20 mM Tris-HCl, pH 7.5 or 20 mM HEPES, pH 7.5) or high tonicity buffers (buffer solution comprising 150 mM NaCl) at 37° C. for 2 hours. The cells treated with storage buffer solution (20 mM Tris-HCl, pH 7.5, 150 mM NaCl buffer solution (pH 7.5)) were used as a negative control group. The dotted line represents the detection limit (1 Log CFU/ml).
For this, endolysin EC340 at a concentration of 2 μM and each test bacterium were added to reaction buffer (20 mM Tris-Cl, pH 7.5) so that the final concentration was to be 200 μl, and were left at 37° C. for 2 hours. After 2 hours, the number of colonies of Acinetobacter baumannii, Pseudomonas aeruginosa and Escherichia coli was confirmed, and the result was shown in FIG. 3.

The test system of assay [4] is E. coli. The assay is described as follows: Checkerboard assay (MIC in combination, FIC index). It counts as cell-based, Escherichia coli. To be noted: E. coli ATCC8738. Here is the method:
LNT113 was vertically diluted 2-fold and the antibiotic was serially diluted horizontally in a 96-well plate. Bacterium at a concentration of 10^6 CFU/ml were added to each well in a CAA medium. […] The fractional inhibitory concentration (FIC) for the LNT113 or antibiotic was calculated by dividing the MIC of two drugs by combining it with the MIC of each drug alone. […] The FICI was considered as a synergistic effect ≤0.5, an additive >0.5 ˜≤1, an independent effect (indifference)>1.0 ˜≤2, and an antagonistic effect (antagonism) >2.

For assay [5], the system named is K. pneumoniae. In words: Antibacterial activity analysis (colony count after 2 hours in buffer). Format: cell-based, Klebsiella pneumoniae. To be noted: 2 μM. As to the method:
as §1, §2

With `CC(=O)OCC1=C(C(=O)O)N2C(=O)[C@@H](NC(=O)Cc3cccs3)[C@H]2SC1` [Cephalothin], the MIC of antibiotics in the assay on K. pneumoniae [1] is no less than 128 µg/mL; in the assay on E. coli [2] (E. coli CCARM 1A746), no less than 128 µg/mL; in the assay with E. coli [2] (E. coli CCARM 1B684), 64 µg/mL.
Regarding Trimethoprim-sulfamethoxazole, the MIC of antibiotics with K. pneumoniae [1] was no less than 32 µg/mL; with E. coli [2] (E. coli CCARM 1A746) it was no less than 128 µg/mL.
Turning to Gentamicin, the MIC of antibiotics with K. pneumoniae [1] is no less than 128 µg/mL; with E. coli [2] (E. coli CCARM 1A746) it was no less than 128 µg/mL; in the assay with E. coli [2] (E. coli CCARM 1B684) it was 128 µg/mL.
Take `CC1(C)S[C@@H]2[C@H](NC(=O)[C@H](N)c3ccccc3)C(=O)N2[C@H]1C(=O)O` [Ampicillin]: the MIC of antibiotics in the assay on K. pneumoniae [1], with E. coli [2] (E. coli CCARM 1A746) and with E. coli [2] (E. coli CCARM 1B684) was no less than 128 µg/mL each time.
For the molecule `O=C(O)c1cn(C2CC2)c2cc(N3CCNCC3)c(F)cc2c1=O` [Ciprofloxacin], the figures for the MIC of antibiotics with K. pneumoniae [1], in the assay with E. coli [2] (E. coli CCARM 1A746) and with E. coli [2] (E. coli CCARM 1B684) were no more than 0.25 µg/mL, 128 µg/mL and 64 µg/mL, respectively.
With `CO/N=C(\C(=O)N[C@@H]1C(=O)N2C(C(=O)O)=C(COC(C)=O)CS[C@H]12)c1csc(N)n1` [Cefotaxime], the MIC of antibiotics is 16 µg/mL in the assay on K. pneumoniae [1], 128 µg/mL in the assay on E. coli [2] (E. coli CCARM 1A746) and 0.25 µg/mL in the assay with E. coli [2] (E. coli CCARM 1B684).

B1: mtEC340: mutant EC340 with H39S, D43H, T45E, A73V, A81S, T101A and I113V (protein)
chain: VSRNISNNGIKFTAAFEGFRGTAYRATPNEKYLTIGYGSYGPHVEPGKTITPGQGLLLLNRDMAKAVAAVDAVAHHSLTQSQFDAVCDLVYNAGAGVIAAATGTGKALRSGDVATLRAKLALFINQNGKPLLGLRRRTAGRLALFDGKPWQEAEAIGRAVKG
modifications: synthetic_mtEC340
notes: mutant EC340 with H39S, D43H, T45E, A73V, A81S, T101A and I113V
As for B1, the “antibacterial activity (number of bacterium)” value with E. coli [3] (E. coli ATCC8739, ATCC25922, CCARM1A746, CCARM1B684, 2 hours, Tris-HCl pH 7.5) is “more excellent antibacterial activity”; with K. pneumoniae [5] (K. pneumoniae ATCC700603, KCTC2208, CCARM10143, F85, 2 hours, Tris-HCl pH 7.5), “more excellent antibacterial activity”. In addition, the “effect of adding NaCl on antibacterial activity” value in the assay with E. coli [3] (E. coli ATCC 8739, Tris or Hepes buffer with 150 mM NaCl) is listed as “almost inactivated”; in the assay on K. pneumoniae [5] (K. pneumoniae KCTC 2208, Tris or Hepes buffer with 150 mM NaCl), “almost inactivated”. The “increase of antibacterial activity versus EC340” value was “up to 1 log” with E. coli [3] (various E. coli strains, 2 hours) and “up to 1 log” in the assay on K. pneumoniae [5] (various K. pneumoniae strains, 2 hours). The “MIC of endolysin combined with colistin: mtEC340” value was greater than 128 µg/mL in the assay on E. coli [4] (Colistin 0), 16 µg/mL with E. coli [4] (Colistin 0.125 (row with mtEC340 16)), 32 µg/mL in the assay on E. coli [4] (Colistin 0.125 (row with mtEC340 32)) and less than 2 µg/mL in the assay on E. coli [4] (Colistin 0.25).

The values above are taken from US12102667B2, “Polypeptides and antibiotics against gram-negative bacterium comprising the same” (priority 2021, dated 2024).
